Measured values reported in patent US6593299B1, “Compositions and methods for controlling pests” (priority 1999, dated 2003).
Ends that are not written are not given here.

What was measured:
[1] = target: TMOF receptor (mosquito gut receptor) (Aedes aegypti); assay: cell-based or functional assay
[2] = test system: trypsin biosynthesis in the midgut of female Aedes aegypti; assay: NPF injected into blood-fed whole female mosquitoes, midgut trypsin biosynthesis; type: in vivo; conditions: whole blood-fed females, injected 0.25 μl at 10^−6 M, midguts assayed 30 hours later
Procedure: To determine whether NPF I and II affect trypsin biosynthesis in the midgut of female Aedes aegypti, females were fed a blood meal and immediately injected with 0.25 μl of the peptide at concentrations of 2.5 μg to 12.5 pg and 30 hours later the midguts were removed and assayed for trypsin biosynthesis (Borovsky et al., 1990 “Mosquito Oostatic Factor: A Novel Decapeptide Modulating Trypsin-Like Enzyme Biosynthesis in the Midgut” FASEB J. 4:3015-3020; Borovsky et al. 1993 “Mass Spectrometry and Characterization of Aedes aegypti Trypsin Modulating Oostatic Factor (TMOF) and its Analog” Insect Biochem. Molec. Biol. 23:703-712). Each experiment was repeated 3 times (5 females per group) and the results are expressed as % inhibition of trypsin biosynthesis±S.E.M. (FIG. 1).

[3] = test system: Aedes aegypti larvae; assay: Feeding TMOF and analog peptides to mosquito larvae (LD50); type: in vivo; conditions: newly hatched larvae on autoclaved yeast 1 mg/ml, peptide 0 to 5.0 mg/ml, microtiter plates, 7 days
From the text: TMOF can traverse the gut epithelium, enter the hemolymph and bind a gut receptor (Borovsky, D. and F. Mahmood (1995) “Feeding the mosquito Aedes aegypti with TMOF and its analogs; effect on trypsin biosynthesis and egg development,” Regulatory Peptides 57:273-281.; Borovsky et al. (1994) “Characterization and localization of mosquito-gut receptors for trypsin modulating oostatic factor using complementary peptide immunochemistry”FASEB J. 8:350-355.). This characteristic permits the testing of TMOF and its analogues by feeding them to mosquito and other pest larvae. To find out if truncated TMOF peptides have an effect on larval growth and development, a series of peptides were synthesized and tested by feeding them to mosquito larvae at concentrations of 0 to 5.0 mg/ml (Table 2). Individual, newly hatched Aedes aegypti larvae were maintained in separate microtiter plate wells on a diet of autoclaved yeast (1 mg/ml). The diet was supplemented with TMOF peptides (Table 2). An identical number of larvae maintained on yeast served as a control. […] All control groups survived and larval growth and development was normal. Since larvae swallow only a small portion of the yeast particles adsorbed the peptides, it is assumed that approximately 1 to 20 ng are taken orally at the high concentrations.

[4] = test system: fourth instar Heliothis virescens; assay: Feeding TMOF analogs to fourth instar H. virescens: larval weight; type: in vivo; conditions: fourth instar larvae
Procedure: (§1) Several analogues were chosen and were fed to fourth instar Heliothis virescens for seven (7) days and to first instars for fourteen (14) days (Tables 3 and 4). In both cases a reduction in weight gain and trypsin inhibition was noted (Tables 3 and 4).
(§2) Individual first instar and fourth instar larvae of H. virescens were maintained in separate plastic cups and were fed on artificial diet blocks on which different concentrations of TMOF (0 to 1.6 mg) were adsorbed. Larvae were fed for 5 to 14 days and larval weight and trypsin activity were measured at the end of the experimental periods. […] When first instar larvae were fed for 14 days, an 18% and 26% reduction in weight was observed when analogues 15 and 16 were used (Table 4).
Fourth instar larvae were weighed and fed on synthetic food and 0.8 mg of TMOF analogues for 5 days. […]. Results are average of 3 to 10 experiments S.E.M.

[5] = test system: TTLE biosynthesis; assay: Feeding TMOF analogs to fourth instar H. virescens: gut trypsin (TTLE) biosynthesis by [3H]DFP; type: in vivo, Heliothis virescens; design: Trypsin: unit not given here; conditions: fourth instar larvae, 0.8 mg of analogue, 5 days
[6] = test system: first instar Heliothis virescens; assay: Feeding first instar H. virescens on TMOF analogs for 14 days; type: in vivo; design: Weight Reduction ± S.E.M.: concentration or dose not given beside the values; conditions: first instar larvae fed 14 days
Procedure: as §1, §2

NPF I (Ala-Arg-Gly-Pro-Gln-Leu-Arg-Leu-Arg-Phe-amide) (peptide)
inhibition of trypsin biosynthesis (ligated abdomens of blood-fed female Aedes aegypti, 30 h after injection) (% inhibition at 10^-6 M) [1]: 54

Ala-Pro-Ser-Arg-Leu-Arg-Phe-amide (APSRLRF-NH2) [NPF II]
% inhibition of trypsin biosynthesis [2]: 35%

YSPAP [18. YSPAP, YSPAP]
LD50 + S.E.M. [3]: 1.4 ± 0.03 mM | Weight Gain ([4]; 0.8 mg of analogue, 5 days): 151 mg | Weight mg ± S.E.M. End ([4]; synthetic food and 0.8 mg of analogue, after 5 days): 188 ± 10.6 mg | Weight mg ± S.E.M. Start ([4]; weight before feeding (baseline)): 30.6 ± 1.2 mg | Trypsin ([5]; guts incubated with [3H]DFP): 2.0 ± 0.2 | Inhibition (trypsin) ([5]; versus control): 19 ± 2% | Number of Dead Larvae [6]: 0 | Weight ± S.E.M. [6]: 168 ± 11 mg | Weight Reduction ± S.E.M. ([6]; versus control): 0%
